In patent US20240299400A1, “Transcription Factor GLI1 Inhibitors and Uses Thereof” (University of Connecticut, priority 2023, published 2024):

How the values were obtained:
[1] = test system: DAOY (MB); assay: MTS anti-proliferative assay in DAOY cells; format: cell-based; settings: Table 8, 48 h, mean ± SEM
Description: (§1) Cell viability was assessed by MTS proliferation assay kit (Promega) per manufacturer's protocol. Briefly, 2×10^4 cells were plated in a 96-well plate in 100 μL growth medium to make the cell population at ˜80% confluence. After 24 h, 1 μL drug solution was added to each well. DMSO was used as vehicle compound. After 48 h incubation (37° C., 5% CO2), 20 μL of freshly prepared 3-(4,5-dimethylthiazol-2-yl)-5-(3-carboxymethoxyphenyl)-2-(4-sulfophenyl)-2H-tetrazolium (MTS)/phenazine methosulfate (PMS) solution was added to each well, and the plate was returned to the incubator for 1 h. Absorbance at 490 nm was recorded, and the result was analyzed by GraphPad Prism 5. GI50 values represent mean±SEM for at least two separate experiments performed in triplicate.

[2] = test system: PANC-1 (pancreatic); assay: MTS anti-proliferative assay in PANC-1 cells; format: cell-based; settings: Table 8, 48 h, mean ± SEM
Description: as §1

[3] = test system: GLI1 mRNA expression; assay: RT-qPCR GLI1 mRNA expression in ASZ001 BCC cells; format: cell-based, mouse; settings: Ave ± SEM, read-out: RT-qPCR, IC50 ASZ001
Description: (§2) ASZ001 and Sufu-KO cells were seeded in 96-well plates (10,000/well, 100 μL) and incubated overnight under growth conditions. On the second day, ‘growth’ media was removed and replaced by ‘assay’ media (100 μL). On the third day, cells were treated with a serial dilution of drugs or DMSO for 48 h. mRNA expression was determined through Taqman Fast Cells-to-CT Kit (#4399003) per the manufacturer's instructions. In brief, cells were washed with chilled PBS, then mixed with lysis solution containing DNase I and incubated at RT for 5 min. Stop solution was then added to quench the lysis reagents. cDNA was then synthesized through a BioRad MyCycler following addition of reverse transcriptase. Finally, the cDNA was amplified through an ABI 7500 system following addition of Taqman Fast Universal PCR Master Mix and Taqman Gene Expression Primer. Relative gene expression levels were computed by the ΔΔCt method. Values represent mRNA expression relative to DMSO control (set at 1.0). Data were analyzed using GraphPad Prism, and IC50 values are the mean±SEM for at least two separate experiments performed in triplicate. Primers used are as follows: mouse ActB (Mm00607939_s1); mouse GLI1 (Mm00494645_ml); mouse Gli2 (Mm01293117_ml); mouse Ptch1 (Mm00436026_ml); mouse Hhip (Mm00469580_ml).

[4] = test system: GLI1 mRNA expression; assay: RT-qPCR GLI1 mRNA expression in Sufu-KO MEFs; format: cell-based, mouse; settings: Ave ± SEM, read-out: RT-qPCR, IC50 Sufu-KO
Description: as §2

[5] = test system: ASZ001 cells; assay: MTS anti-proliferative assay in ASZ001 cells; format: cell-based, murine; settings: Ave ± SEM
Description: as §1

[6] = test system: GLI1 mRNA expression; assay: RT-qPCR GLI1 mRNA expression in OHCs-stimulated C3H10T1/2 MEFs; format: cell-based, mouse; settings: C3H10T1/2 MEFs, 10 μM, relative to Hh-agonist OHCs (set as 100%), mean ± SEM
Description: as §2
C3H10T1/2 MEFs were seeded in 24-well plates (50,000/well, 500 μL). Following 24 h incubation, the ‘growth’ media was removed and replaced with ‘assay’ media (500 μL). On the third day, cells were treated with either DMSO, OHCs, or OHCs+drugs. Following a 24 h incubation, gene expression analysis was carried out following identical protocols as described above.

[7] = test system: GLI2 protein expression; assay: Western blot GLI2 protein expression in ASZ001 cells; format: cell-based, murine; settings: 25 μM
Description: (§3) ASZ001 cells were plated as described above and treated with drugs or vehicle control. Following incubation, cells were washed with chilled PBS and lysed with RIPA buffer containing […] PMSF protease inhibitor (Thermo Scientific #26978). Supernatant was collected following 15 min centrifugation at 12,000 rpm and 4° C. Protein concentrations from cell extracts were determined through the BCA kit (Pierce #23228) per the manufacturer's instructions. Proteins from either cell lysate or cell-free biochemical assay were then loaded on 12% SDS-PAGE. Following electrophoresis, proteins were transferred onto nitrocellulose membrane at 100 V for 120 min at 4° C. On a clean tray with constant gentle shaking, the membrane was sequentially submerged in 5% BSA for 1 h, and incubated with the primary antibody indicated overnight at 4° C. After washes with TBST, the appropriate secondary antibody was added to the tray for a 2 h incubation at RT. Chemiluminescent detection on film was visualized using ECL reagents (BioRad #1705060) and subsequently quantitated using Image J (http://imagej.nih.gov). Primary antibodies were used at 1:2000 dilution and are as follows: GLI1 (#MA5-32553); Gli2 (#PA5-79314); β-Actin (#PA1-16889). Secondary antibody (Goat anti-Rabbit, #32460) was used at a 1:5000 dilution. All antibodies were purchased from Invitrogen.

[8] = biological target: T1, GLI1-ZFD (Homo sapiens, UniProt P08151); assay: Microscale thermophoresis (MST) binding to GLI1-ZFD; settings: Table 5, Ave ± SEM
T1 construct: GLI1-ZFD Expression and Purification; made in house
T1 sequence (P08151 234-388 limits assumed): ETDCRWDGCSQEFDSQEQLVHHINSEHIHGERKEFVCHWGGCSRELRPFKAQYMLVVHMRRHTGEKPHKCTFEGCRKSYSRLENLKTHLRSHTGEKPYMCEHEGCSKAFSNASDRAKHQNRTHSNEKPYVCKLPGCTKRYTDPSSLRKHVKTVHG
Description: The protein expression and purification experiments followed the previous reported procedures [C. A. Maschinot, et al., Synthesis and evaluation of third generation vitamin D3 analogues as inhibitors of hedgehog signaling. Euro. J. Med. Chem. 162 (2019) 495-506].
GLI1 protein labeling was performed through the Monolith Protein Labeling Kit RED-NHS 2nd Generation (Nanotemper #MO-LO11) per the manufacturer's instructions. Briefly, GLI1 (100 μg, 1 mg/mL) underwent buffer exchange to remove incompatible ingredients like Tris or DTT. Proteins in the Labeling Buffer were incubated with freshly prepared dye (˜3-fold excess of dye) for 30 min at RT in the dark. Unreacted ‘free’ dye was removed by a gel-filtration column. Protein concentration and degree-of-labeling were calculated by measuring absorption at 280 nm and 650 nm. For each assay, 200 nM GLI1 in MST Buffer was mixed with compound dilution in DMSO (DMSO<5%, v/v). The mixture was then loaded to a capillary and the thermophoresis was subsequently determined through Monolith NT.115 station. Results were analyzed by MO.Affinity Analysis software and visualized by Graphpad Prism. MST Buffer: 50 mM HEPES, pH 8.3, 100 mM NaCl.

[9] = test system: GLI1 protein levels; assay: Western blot GLI1 protein expression in ASZ001 cells; format: cell-based, murine; settings: 25 μM
Description: as §3

[10] = test system: Hhip mRNA expression; assay: RT-qPCR Hhip mRNA expression in ASZ001 cells; format: cell-based, mouse; settings: 10 μM, FIG. 4A
Description: as §2

[11] = Mus musculus, ASZ001, Table 7, GLI1 mRNA
[12] = Mus musculus, Table 7, GLI1 mRNA
[13] = Mus musculus, ASZ001, Table 7, 48 h

GI50 ([2]; Homo sapiens, PANC-1)	IC50 [3, 11]	IC50 [4, 12]	GI50 [2]	Kd [8]	IC50 ([3]; Table 5, GLI1 mRNA)	IC50 ([4]; Table 5, GLI1 mRNA)	SMILES	GI50 ([1]; Homo sapiens, Daoy)	GI50 [5, 13]	% Gli1 Expression [6]	GLI2 protein expression (in words) [7]	GI50 [1]	GLI1 protein levels (in words) [9]	expression of Hhip mRNA (in words) [10]	GI50 ([5]; Table 5, 48 h)
45.4 ± 10.3 µM	1.5 ± 0.6 µM	1.2 ± 0.3 µM	–	–	–	–	Cc1ccc2ccc(C(Nc3ccccn3)c3ccc(N(C)C)cc3)c(O)c2n1 (stereo not drawn) [Compound 42, 7-((4-Dimethylaminophenyl)(pyridin-2-ylamino)methyl)-2-methylquinolin-8-ol]	18.3 ± 3.6 µM	10.1 ± 1.8 µM	–	–	–	–	–	–
29.6 ± 5.2 µM	1.3 ± 0.3 µM	1.2 ± 0.6 µM	–	–	–	–	Cc1ccc2ccc(C(Nc3ccccn3)c3ccc(N4CCCC4)cc3)c(O)c2n1 (stereo not drawn) [Compound 43, 7-((4-(Pyrrolidin-1-yl)phenyl)(pyridin-2-ylamino)methyl)-2-methylquinolin-8-ol]	12.8 ± 1.9 µM	8.8 ± 2.4 µM	–	–	–	–	–	–
52.7 ± 5.3 µM	4 ± 0.8 µM	4.5 ± 1 µM	–	–	–	–	Cc1ccc2ccc(C(Nc3ccccn3)c3ccc(N4CCCCC4)cc3)c(O)c2n1 (stereo not drawn) [Compound 44, 7-((4-(Piperidin-1-yl)phenyl)(pyridin-2-ylamino)methyl)-2-methylquinolin-8-ol]	22.6 ± 4 µM	27.7 ± 5.3 µM	–	–	–	–	–	–
61.1 ± 11.5 µM	2.2 ± 0.8 µM	1.4 ± 0.4 µM	–	–	–	–	Cc1ccc2ccc(C(Nc3ccccn3)c3ccc(N4CCOCC4)cc3)c(O)c2n1 (stereo not drawn) [Compound 45, 7-((4-Morpholinophenyl)(pyridin-2-ylamino)methyl)-2-methylquinolin-8-ol]	24.2 ± 5.8 µM	18.3 ± 1.5 µM	–	–	–	–	–	–
–	–	–	35.2 ± 7.5 µM	65.2 ± 15.2 µM	11.1 ± 1.5 µM	5.3 ± 1.4 µM	CN(C)c1ccccc1CN1CCCN(Cc2ccccc2N(C)C)C1c1ccncc1 [GANT61, reference compound]	–	–	72.4 ± 5.6%	inactive	27.2 ± 3.6 µM	significantly down-regulated	more effective at reducing Hhip expression compared to GLI1	57.5 ± 14 µM
